In the supplement of paper PMC9103864:

Experiments:
[1] = tested on: BMSC (primary human bone marrow mesenchymal stromal cells); assay: absolute EC50 for viability; higher = less sensitive
[2] = tested on: BMSC (primary human bone marrow mesenchymal stromal cells); assay: drug sensitivity score (DSS); higher = more sensitive

Cn1cnc2c(F)c(Nc3ccc(Br)cc3Cl)c(C(=O)NOCCO)cc21 [Selumetinib]
absolute EC50 for viability [1]: > 10 µM
drug sensitivity score [2]: 4.9

CN1CCN(C(=O)c2ccc3cc(CCNc4ncnc5ccc(C#N)cc45)ccc3c2)CC1 [Senexin B]
absolute EC50 for viability [1]: > 1 µM
drug sensitivity score [2]: 0.3

COCC[n+]1c2c(n(Cc3cnccn3)c1C)C(=O)c1ccccc1C2=O [Sepantronium bromide]
absolute EC50 for viability [1]: 0.0705 µM
drug sensitivity score [2]: 25.4

Nc1nc2cc(-c3ccc4ncc(C(=O)N5CCOCC5)n4c3)ccc2o1 [Serabelisib]
absolute EC50 for viability [1]: > 10 µM
drug sensitivity score [2]: 3.3

O=C(O)c1ccc2c(c1)nc(Nc1cccc(Cl)c1)c1ccncc12 [Silmitasertib]
absolute EC50 for viability [1]: > 10 µM
drug sensitivity score [2]: 2.3

CCC(C)(C)C(=O)O[C@H]1C[C@@H](C)C=C2C=C[C@H](C)[C@H](CC[C@@H]3C[C@@H](O)CC(=O)O3)[C@H]21 [Simvastatin]
absolute EC50 for viability [1]: > 10 µM
drug sensitivity score [2]: 2.4

CO[C@H]1C[C@@H]2CC[C@@H](C)[C@@](O)(O2)C(=O)C(=O)N2CCCC[C@H]2C(=O)O[C@H]([C@H](C)C[C@@H]2CC[C@@H](O)[C@H](OC)C2)CC(=O)[C@H](C)/C=C(\C)[C@@H](O)[C@@H](OC)C(=O)[C@H](C)C[C@H](C)/C=C/C=C/C=C/1C [Sirolimus]
absolute EC50 for viability [1]: > 0.1 µM
drug sensitivity score [2]: 4.2

COCCNCc1ccc(-c2cc3nccc(Oc4ccc(NC(=O)C5(C(=O)Nc6ccc(F)cc6)CC5)cc4F)c3s2)nc1 [Sitravatinib]
absolute EC50 for viability [1]: > 2.5 µM
drug sensitivity score [2]: 7.7

Cc1c(C(=O)Nc2ccc(N3C[C@@H](C)O[C@@H](C)C3)nc2)cccc1-c1ccc(OC(F)(F)F)cc1 [Sonidegib]
absolute EC50 for viability [1]: > 10 µM
drug sensitivity score [2]: 0

C=CCN(/C=C1/C(=O)O[C@H](COC)[C@@]2(C)C1=C(O)C(=O)C1=C2[C@H](OC(C)=O)C[C@]2(C)C(=O)CC[C@@H]12)CC=C [Sonolisib]
absolute EC50 for viability [1]: > 10 µM
drug sensitivity score [2]: 0

CNC(=O)c1cc(Oc2ccc(NC(=O)Nc3ccc(Cl)c(C(F)(F)F)c3)cc2)ccn1 [Sorafenib]
absolute EC50 for viability [1]: > 1 µM
drug sensitivity score [2]: 0

CN1CCN(c2nc(C3=C(c4c[nH]c5ccccc45)C(=O)NC3=O)c3ccccc3n2)CC1 [Sotrastaurin]
absolute EC50 for viability [1]: > 10 µM
drug sensitivity score [2]: 2.8

C=CC(=O)Nc1cccc(Nc2nc(Nc3ccc(OCCOC)cc3)ncc2F)c1 [Spebrutinib]
absolute EC50 for viability [1]: > 1 µM
drug sensitivity score [2]: 1.2

CC(C)n1cnc2c(NCCc3ccc(O)cc3)nc(-c3csc4ccccc34)nc21 [StemRegenin 1]
absolute EC50 for viability [1]: > 10 µM
drug sensitivity score [2]: 0.4

CCN(CC)CCNC(=O)c1c(C)[nH]c(/C=C2\C(=O)Nc3ccc(F)cc32)c1C [Sunitinib]
absolute EC50 for viability [1]: > 1 µM
drug sensitivity score [2]: 5.6

CC(C)(O)CC(=O)NCCn1ccc2ncnc(Nc3ccc(Oc4cccc(C(F)(F)F)c4)c(Cl)c3)c21 [TAK-285]
absolute EC50 for viability [1]: > 2.5 µM
drug sensitivity score [2]: 0.4

C[C@@H](NC(=O)c1ncnc(N)c1Cl)c1ncc(C(=O)Nc2cc(C(F)(F)F)c(Cl)cn2)s1 [TAK-580]
absolute EC50 for viability [1]: > 10 µM
drug sensitivity score [2]: 5.7

CCS(=O)(=O)c1cccc(-c2cc(C(=O)NC3CCN(C)CC3)c(C)c3[nH]c4ncc(C)cc4c23)c1 [TAK-901]
absolute EC50 for viability [1]: 0.265 µM
drug sensitivity score [2]: 5.9

Cc1cccc(-c2[nH]c(CNc3ccccc3F)nc2-c2ccc3ncnn3c2)n1 [TEW-7197]
absolute EC50 for viability [1]: > 2.5 µM
drug sensitivity score [2]: 2.1

Nc1nc(N)c2nc(-c3cccc(O)c3)c(-c3cccc(O)c3)nc2n1 [TG100-115]
absolute EC50 for viability [1]: > 10 µM
drug sensitivity score [2]: 2.5

CC(C)Oc1ccc(-c2nn([C@@H](C)c3oc4ccc(F)cc4c(=O)c3-c3cccc(F)c3)c3ncnc(N)c23)cc1F [TGR-1202]
absolute EC50 for viability [1]: > 2.5 µM
drug sensitivity score [2]: 0

Cc1cc(C(C)Nc2ccccc2)c2nc(N3CCOCC3)cc(=O)n2c1 (configuration not stated) [TGX-221]
absolute EC50 for viability [1]: > 10 µM
drug sensitivity score [2]: 0.3

Nc1nc(NC2CC2)cc(-c2cccc(Cl)c2Cl)n1 [TH588]
absolute EC50 for viability [1]: > 25 µM
drug sensitivity score [2]: 0

CN(C)C/C=C/C(=O)Nc1cccc(C(=O)Nc2cccc(Nc3ncc(Cl)c(-c4c[nH]c5ccccc45)n3)c2)c1 [THZ2]
absolute EC50 for viability [1]: 2.71 µM
drug sensitivity score [2]: 11.1

Cc1ccccc1CN1C(=O)C2=C(CCN(Cc3ccccc3)C2)N2CCN=C12 [TIC10]
absolute EC50 for viability [1]: > 25 µM
drug sensitivity score [2]: 3.8

Clc1ccccc1C(c1ccccc1)(c1ccccc1)n1cccn1 [TRAM-34]
absolute EC50 for viability [1]: > 1 µM
drug sensitivity score [2]: 0

CC(=O)Nc1ccc(C(=O)Nc2ccccc2N)cc1 [Tacedinaline]
absolute EC50 for viability [1]: > 1 µM
drug sensitivity score [2]: 0

C=CC[C@@H]1/C=C(\C)C[C@H](C)C[C@H](OC)[C@H]2O[C@@](O)(C(=O)C(=O)N3CCCC[C@H]3C(=O)O[C@H](/C(C)=C/[C@@H]3CC[C@@H](O)[C@H](OC)C3)[C@H](C)[C@@H](O)CC1=O)[C@H](C)C[C@@H]2OC [Tacrolimus]
absolute EC50 for viability [1]: > 10 µM
drug sensitivity score [2]: 1.8

CN(C(=O)c1ccc(F)cc1C(F)(F)F)C1CCN(c2nnc(-c3ccnn3C)c3ccccc23)CC1 [Taladegib]
absolute EC50 for viability [1]: > 10 µM
drug sensitivity score [2]: 0

Cn1ncnc1[C@H]1c2n[nH]c(=O)c3cc(F)cc(c23)N[C@@H]1c1ccc(F)cc1 [Talazoparib]
absolute EC50 for viability [1]: > 1 µM
drug sensitivity score [2]: 1

C[C@@H]1CN(Cc2ccc(F)cc2)[C@@H](C)CN1C(=O)c1cc2c(C(=O)C(=O)N(C)C)cn(C)c2cc1Cl [Talmapimod]
absolute EC50 for viability [1]: > 10 µM
drug sensitivity score [2]: 0

COc1cc(Nc2ncc(F)c(Nc3ccc4c(n3)NC(=O)C(C)(C)O4)n2)cc(OC)c1OC [Tamatinib]
absolute EC50 for viability [1]: > 10 µM
drug sensitivity score [2]: 4.2

CC/C(=C(\c1ccccc1)c1ccc(OCCN(C)C)cc1)c1ccccc1 [Tamoxifen]
absolute EC50 for viability [1]: > 10 µM
drug sensitivity score [2]: 0

COc1cc2c(N3CCN(C(=O)Nc4ccc(OC(C)C)cc4)CC3)ncnc2cc1OCCCN1CCCCC1 [Tandutinib]
absolute EC50 for viability [1]: > 1 µM
drug sensitivity score [2]: 2.7

O[C@H]1CC[C@H](Nc2ncc3nc(Nc4c(F)cc(F)cc4F)n([C@H]4CCOC4)c3n2)CC1 [Tanzisertib]
absolute EC50 for viability [1]: > 10 µM
drug sensitivity score [2]: 0.3

C[C@@H](C(=O)O)c1ccc(-c2ccccc2)c(F)c1 [Tarenflurbil]
absolute EC50 for viability [1]: > 10 µM
drug sensitivity score [2]: 0

Cc1nc(-c2cn3c(n2)-c2ccc(-c4cnn(C(C)(C)C(N)=O)c4)cc2OCC3)n(C(C)C)n1 [Taselisib]
absolute EC50 for viability [1]: > 1 µM
drug sensitivity score [2]: 8.9

COc1cccc2c1c(O)c(C(=O)N(C)c1ccc(C(F)(F)F)cc1)c(=O)n2C [Tasquinimod]
absolute EC50 for viability [1]: > 10 µM
drug sensitivity score [2]: 0.8

CCN(c1cc(-c2ccc(CN3CCOCC3)cc2)cc(C(=O)NCc2c(C)cc(C)[nH]c2=O)c1C)C1CCOCC1 [Tazemetostat]
absolute EC50 for viability [1]: > 10 µM
drug sensitivity score [2]: 0

CNC(=O)c1cc(COc2nnc(Nc3ccc(Cl)cc3)c3ccoc23)ccn1 [Telatinib]
absolute EC50 for viability [1]: > 10 µM
drug sensitivity score [2]: 4.2

Cn1nnc2c(C(N)=O)ncn2c1=O [Temozolomide]
absolute EC50 for viability [1]: > 100 µM
drug sensitivity score [2]: 0

CO[C@H]1C[C@@H]2CC[C@@H](C)[C@@](O)(O2)C(=O)C(=O)N2CCCC[C@H]2C(=O)O[C@H]([C@H](C)C[C@@H]2CC[C@@H](OC(=O)C(C)(CO)CO)[C@H](OC)C2)CC(=O)[C@H](C)/C=C(\C)[C@@H](O)[C@@H](OC)C(=O)[C@H](C)C[C@H](C)/C=C/C=C/C=C/1C [Temsirolimus]
absolute EC50 for viability [1]: > 0.1 µM
drug sensitivity score [2]: 7.4

COc1cc([C@@H]2c3cc4c(cc3[C@@H](O[C@@H]3O[C@@H]5CO[C@@H](c6cccs6)O[C@H]5[C@H](O)[C@H]3O)[C@H]3COC(=O)[C@H]23)OCO4)cc(OC)c1O [Teniposide]
absolute EC50 for viability [1]: > 10 µM
drug sensitivity score [2]: 0

CN1CCC(COc2cnc(-c3cccc(Cn4nc(-c5cccc(C#N)c5)ccc4=O)c3)nc2)CC1 [Tepotinib]
absolute EC50 for viability [1]: > 1 µM
drug sensitivity score [2]: 0.3

COc1cc2c(Nc3ccc(Cl)c(Cl)c3F)ncnc2cc1OC[C@@H]1C[C@@H]2CN(C)C[C@@H]2C1 [Tesevatinib]
absolute EC50 for viability [1]: > 1 µM
drug sensitivity score [2]: 4.1

O=C1CCC(N2C(=O)c3ccccc3C2=O)C(=O)N1 (configuration not stated) [Thalidomide]
absolute EC50 for viability [1]: > 10 µM
drug sensitivity score [2]: 0

Nc1nc2[nH]cnc2c(=S)[nH]1 [Thioguanine]
absolute EC50 for viability [1]: 1.18 µM
drug sensitivity score [2]: 9.2

O=c1sn(-c2cccc3ccccc23)c(=O)n1Cc1ccccc1 [Tideglusib]
absolute EC50 for viability [1]: > 3 µM
drug sensitivity score [2]: 0

Cn1cncc1[C@@](N)(c1ccc(Cl)cc1)c1ccc2c(c1)c(-c1cccc(Cl)c1)cc(=O)n2C [Tipifarnib]
absolute EC50 for viability [1]: > 10 µM
drug sensitivity score [2]: 4.4

O=C1NC(=O)[C@@H](c2cn3c4c(cccc24)CCC3)[C@@H]1c1c[nH]c2ccccc12 [Tivantinib]
absolute EC50 for viability [1]: > 1 µM
drug sensitivity score [2]: 0

COc1cc2nccc(Oc3ccc(NC(=O)Nc4cc(C)on4)c(Cl)c3)c2cc1OC [Tivozanib]
absolute EC50 for viability [1]: > 10 µM
drug sensitivity score [2]: 7.6

C[C@@H]1CCN(C(=O)CC#N)C[C@@H]1N(C)c1ncnc2[nH]ccc12 [Tofacitinib]
absolute EC50 for viability [1]: > 5 µM
drug sensitivity score [2]: 0

CC[C@@]1(O)C(=O)OCc2c1cc1n(c2=O)Cc2cc3c(CN(C)C)c(O)ccc3nc2-1 [Topotecan]
absolute EC50 for viability [1]: > 10 µM
drug sensitivity score [2]: 4.4

CN(C)CCOc1ccc(/C(=C(/CCCl)c2ccccc2)c2ccccc2)cc1 [Toremifene]
absolute EC50 for viability [1]: > 10 µM
drug sensitivity score [2]: 0

CC(C)C[C@@H](C(=O)N[C@H](C(=O)OC1CCCC1)c1ccccc1)[C@H](O)C(=O)NO [Tosedostat]
absolute EC50 for viability [1]: > 10 µM
drug sensitivity score [2]: 0

Cc1cc(Nc2cc(N3CCN(C)CC3)nc(Sc3ccc(NC(=O)C4CC4)cc3)n2)n[nH]1 [Tozasertib]
absolute EC50 for viability [1]: 4.45 µM
drug sensitivity score [2]: 4.9
